{"source": "patent US10874652B2", "about": "“Muscle regeneration” (The Research Foundation for The State University of New York, priority 2016, dated 2020)", "key": {"dystrophic (mdx4cv) mice [1]": {"tested_on": "dystrophic (mdx4cv) mice", "experiment": "Muscle fibre size (minimum Feret diameter) in dystrophic mice", "type": "in vivo, mouse", "conditions": "200 mg/Kg intraperitoneally twice a week, 12 weeks, gastrocnemius muscle, vs saline", "experimental": "To test whether inhibition of elastase activity promoted muscle regeneration in vivo in dystrophic mice, dystrophic (mdx4cv strain) mice were treated with either the elastase inhibitor Elastatinal (dissolved in saline solution) or saline solution for 12 weeks and muscle fibre size was assayed.\nElastatinal (Enzo Life Sciences) was dissolved in a saline solution (0.9% NaCl) to the concentration of 20 mg/mL and then, either 200 mg/Kg body weight of Elastatinal or an equal volume of saline solution were injected twice a week intraperitoneally into the dystrophic (mdx4cv) mice. After 12 weeks of treatment animals were culled and several muscles dissected, embedded in Optimal Cutting Medium (OCT, Fisher) and frozen in liquid nitrogen-cooled isopentane (Sigma) for histopathological analysis.\nTo measure the extent of muscle regeneration, myofibre size was estimated. Sections of the gastrocnemius muscle of either Elastatinal-treated or saline-treated mice were immunostained to detect laminin which marks the periphery of each muscle fibre and then the programme SMASH′ was used to calculate the minimum Feret diameter as a direct measure of myofibre size."}, "dystrophic (mdx4cv) mice [2]": {"tested_on": "dystrophic (mdx4cv) mice", "experiment": "Muscle inflammation, CD45+ leukocyte infiltration of gastrocnemius muscle", "type": "in vivo, mouse", "conditions": "200 mg/kg, 12 weeks, vs saline", "experimental": "(§1) The objective of this experiment was to determine whether elastase inhibitors can reduce inflammation and/or fibrosis. To test this, cross-sections of the gastrocnemius muscle of mice that were treated with either Elastatinal or saline solution were stained with Picrosirius red, or labelled with an anti-CD45 antibody or an anti-laminin antibody. Picrosirius red allows to differentiate between collagen and the rest of the tissue as it stains the collagen a different colour. The anti-CD45 antibody allows the detection of infiltrating leukocytes (which are a marker of inflammation), and the anti-laminin antibody allows the detection of the periphery of myofibres. Both, the amount of fibrosis and the amount of infiltrated CD45+ leukocytes were reduced with Elastatinal treatment, supporting the hypothesis that elastase activity inhibition reduces fibrosis and inflammation.\n(§2) For this experiment, the mice were treated with an injection of 200 mg/kg of Elastatinal dissolved in a saline solution (0.9% NaCl) to a concentration of 20 mg/mL. Control mice were treated with an equal volume of saline. […]\nTo measure the extent of inflammation, the numbers of infiltrating leucocyte, recognized by immunostaining for CD45 (BD Biosciences) were scored as percentage of area positive to CD45 immunostaining using a written script for Fiji softwate (available at http://fiji.sc) (FIG. 10 D)."}, "elastase": {"tested_on": "elastase", "experiment": "Elastase activity in cell culture medium (fluorescent substrate cleavage)", "type": "biochemical", "conditions": "100 μM inhibitor, 0.75 U/mL purified elastase pre-incubated 1 hour", "experimental": "The percentage of substrate cleavage (substrate conversion to product) was monitored over time by recording product formation every minute for 30 minutes (30 cycles of instrument recording) using a Pierce EZ-Reader."}, "myoblasts": {"tested_on": "myoblasts", "experiment": "Elastase-induced myoblast cell loss ex vivo", "type": "cell-based", "conditions": "100 μM inhibitor with 0.75 U/mL elastase, 24 hours, myoblasts on uncoated plates", "experimental": "In order to determine the effect of elastase inhibitors on cultures myoblasts, myoblasts were seeded at the density of 7,000 cells/well in 12 multi-well plates (Corning) and grown for 1 day in growth medium. Twenty-four hours after plating, 0.75 U/mL of purified elastase (Sigma Aldrich) were added to the culture medium in the absence (Ela) or presence of either 100 μM Sivelestat (Ela+Sivelestat) or 100 μM Elastatinal (Ela+Elastatinal) and cultured for additional 24 hours. Quantification of total cell numbers per image was done in triplicates and plotted as average±standard error of the mean. NT=non-treated cultures, that received neither elastase nor elastase inhibitors. **=p<0.01."}, "dystrophic (mdx4cv) mice [3]": {"tested_on": "dystrophic (mdx4cv) mice", "experiment": "Muscle fibrosis, Picrosirius red staining of gastrocnemius muscle", "type": "in vivo, mouse", "conditions": "200 mg/kg, 12 weeks, vs saline", "experimental": "as §1, §2\nThe amount of Picrosirius red staining was quantified by selecting re pixels and quantifying the red area using the ImageJ function “Analyze particles”. Averages of 10 technical replicates for each one of 3 biological replicates (N=30) were analysed (FIG. 10 B)."}, "dystrophic (mdx4cv) mice [4]": {"tested_on": "dystrophic (mdx4cv) mice", "experiment": "Grip strength, Kondziela's inverted screen test in dystrophic mice", "type": "in vivo, mouse", "experimental": "To test whether elastase inhibition is effective in counteracting the devastating effects of the muscular dystrophy symptoms, we injected dystrophic (mdx4cv) mice with either 100 mg/Kg body weight of Elastatinal dissolved in sterile saline solution (0.9% […]) or with vehicle (sterile saline solution) alone (n=3) twice a week for 6 weeks then measured the grip strength of all 4 limbs using Kondziela's inverted screen test. Each animal was offered three attempts to reach 90 seconds of grip before falling then the best performance was assigned a score (1 to 6 for every 15 seconds spent on the grid, e.g.: 1-14 seconds=score 1, 15-29 seconds=score 2, etc.). Scores were averaged and plotted as mean±the standard error of the mean.\nIn addition to the above mentioned experiment, Elastatinal was dissolved in a saline solution (0.9% NaCl) to a concentration of 20 mg/mL and then either 200 mg/Kg body weight of Elastatinal or an equal volume of saline solution were injected twice a week for 12 weeks intraperitoneally into dystrophic (mdx4cv) mice. At 8, 10 and 12 weeks of treatment, muscle function (grip strength) of the mice was measured using Kondziella's inverted screen test. A 1-6 score was assigned for every 15 seconds of the total time spent by the mouse on the inverted grid such that a score of 6 indicates at least 90 seconds of latency to fall. […] Error bars are S.E.M. **=p<0.01."}}}
{"compound": "CC(C)C[C@H](NC(=O)N[C@H](C(=O)N[C@@H](CCC(N)=O)C(=O)N[C@@H](C)C=O)[C@@H]1CCNC(=N)N1)C(=O)O", "note": "[Elastatinal]", "values": [{"measurement": "muscle fibre size (minimum Feret diameter)", "setting": "dystrophic (mdx4cv) mice [1]", "result": "increasing muscle fibre size"}, {"measurement": "amount of infiltrated CD45+ leukocytes", "setting": "dystrophic (mdx4cv) mice [2]", "result": "reduced"}, {"measurement": "reduction of elastase activity", "setting": "elastase", "result": "approximately 80%"}, {"measurement": "elastase-induced cell loss", "setting": "myoblasts", "result": "prevents elastase-induced cell loss"}, {"measurement": "amount of fibrosis", "setting": "dystrophic (mdx4cv) mice [3]", "result": "reduced"}, {"measurement": "muscle strength (grip strength)", "setting": "dystrophic (mdx4cv) mice [4]; 100 mg/Kg twice a week for 6 weeks, vs vehicle", "result": "improved muscle strength"}, {"measurement": "grip strength", "setting": "dystrophic (mdx4cv) mice [4]; 200 mg/Kg intraperitoneally twice a week for 12 weeks, measured at 8, 10 and 12 weeks, vs saline", "result": "statistically significantly improved grip strength"}]}
{"compound": "CC(C)(C)C(=O)Oc1ccc(S(=O)(=O)Nc2ccccc2C(=O)NCC(=O)O)cc1", "note": "[Sivelestat]", "values": [{"measurement": "reduction of elastase activity", "setting": "elastase", "result": "approximately 80%"}, {"measurement": "elastase-induced cell loss", "setting": "myoblasts", "result": "prevents elastase-induced cell loss"}]}
